Experiments:
PKCy = PKCy (Homo sapiens (Human), UniProt P05129); experiment: Kinase profiling, 33P ATP filter binding assay; assay type: biochemical; details: 1 micromolar inhibitor concentration, read-out: percentage inhibition
SIK2 = SIK2 (Homo sapiens (Human), UniProt Q9H0K1); experiment: Kinase profiling, 33P ATP filter binding assay; assay type: biochemical; details: 1 micromolar inhibitor concentration, read-out: percentage inhibition
OSR1 = OSR1 (Homo sapiens (Human), UniProt O95747); experiment: Kinase profiling, 33P ATP filter binding assay; assay type: biochemical; details: 1 micromolar inhibitor concentration, read-out: percentage inhibition
OSR1, sequence (O95747 whole entry): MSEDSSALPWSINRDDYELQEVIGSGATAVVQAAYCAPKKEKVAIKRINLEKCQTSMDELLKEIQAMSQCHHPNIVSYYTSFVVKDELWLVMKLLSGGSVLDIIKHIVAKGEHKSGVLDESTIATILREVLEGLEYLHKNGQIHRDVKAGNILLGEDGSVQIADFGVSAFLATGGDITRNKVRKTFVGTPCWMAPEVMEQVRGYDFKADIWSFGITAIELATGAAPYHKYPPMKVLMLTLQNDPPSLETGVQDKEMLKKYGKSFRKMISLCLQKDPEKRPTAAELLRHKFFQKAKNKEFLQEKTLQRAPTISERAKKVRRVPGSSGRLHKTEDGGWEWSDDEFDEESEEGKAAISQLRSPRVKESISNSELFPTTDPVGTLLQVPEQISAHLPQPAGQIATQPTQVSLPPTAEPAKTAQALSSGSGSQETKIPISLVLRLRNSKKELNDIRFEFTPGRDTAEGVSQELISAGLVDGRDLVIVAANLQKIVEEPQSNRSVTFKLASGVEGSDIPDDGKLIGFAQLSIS

PINK = details: 1 micromolar inhibitor concentration
Method: (§3) The determination of protein kinase inhibition was performed at the International Centre for Kinase Profiling at the University of Dundee, UK. […] The ATP concentrations were at or below the calculated Km for ATP for each particular kinase.

PAK5 = PAK5 (Homo sapiens (Human), UniProt Q9P286); experiment: Kinase profiling, 33P ATP filter binding assay; assay type: biochemical; details: 1 micromolar inhibitor concentration, read-out: percentage inhibition
PAK5, sequence (Q9P286 whole entry): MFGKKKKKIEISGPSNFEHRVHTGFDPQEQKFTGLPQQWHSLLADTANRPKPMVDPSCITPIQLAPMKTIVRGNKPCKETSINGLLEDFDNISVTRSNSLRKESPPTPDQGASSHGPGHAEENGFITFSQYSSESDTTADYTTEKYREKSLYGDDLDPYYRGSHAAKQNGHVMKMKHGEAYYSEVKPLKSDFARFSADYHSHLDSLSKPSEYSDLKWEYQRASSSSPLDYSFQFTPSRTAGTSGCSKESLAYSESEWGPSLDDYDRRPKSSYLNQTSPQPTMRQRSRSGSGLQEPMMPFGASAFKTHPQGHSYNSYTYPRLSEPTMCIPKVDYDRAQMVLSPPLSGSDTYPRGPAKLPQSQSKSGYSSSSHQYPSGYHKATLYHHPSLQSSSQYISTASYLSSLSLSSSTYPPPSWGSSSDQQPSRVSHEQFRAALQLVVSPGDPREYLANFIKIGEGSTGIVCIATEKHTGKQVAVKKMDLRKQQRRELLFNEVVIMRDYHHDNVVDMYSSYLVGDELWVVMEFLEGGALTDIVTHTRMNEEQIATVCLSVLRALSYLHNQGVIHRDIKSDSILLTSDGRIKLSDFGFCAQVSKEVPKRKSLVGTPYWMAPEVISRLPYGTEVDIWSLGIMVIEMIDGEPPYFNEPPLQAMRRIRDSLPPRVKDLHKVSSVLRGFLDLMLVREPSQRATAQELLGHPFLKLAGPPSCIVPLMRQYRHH

PKCz = PKCz (Homo sapiens (Human), UniProt Q05513); experiment: Kinase profiling, 33P ATP filter binding assay; assay type: biochemical; details: 1 micromolar inhibitor concentration, read-out: percentage inhibition
PKCz, sequence (Q05513 whole entry): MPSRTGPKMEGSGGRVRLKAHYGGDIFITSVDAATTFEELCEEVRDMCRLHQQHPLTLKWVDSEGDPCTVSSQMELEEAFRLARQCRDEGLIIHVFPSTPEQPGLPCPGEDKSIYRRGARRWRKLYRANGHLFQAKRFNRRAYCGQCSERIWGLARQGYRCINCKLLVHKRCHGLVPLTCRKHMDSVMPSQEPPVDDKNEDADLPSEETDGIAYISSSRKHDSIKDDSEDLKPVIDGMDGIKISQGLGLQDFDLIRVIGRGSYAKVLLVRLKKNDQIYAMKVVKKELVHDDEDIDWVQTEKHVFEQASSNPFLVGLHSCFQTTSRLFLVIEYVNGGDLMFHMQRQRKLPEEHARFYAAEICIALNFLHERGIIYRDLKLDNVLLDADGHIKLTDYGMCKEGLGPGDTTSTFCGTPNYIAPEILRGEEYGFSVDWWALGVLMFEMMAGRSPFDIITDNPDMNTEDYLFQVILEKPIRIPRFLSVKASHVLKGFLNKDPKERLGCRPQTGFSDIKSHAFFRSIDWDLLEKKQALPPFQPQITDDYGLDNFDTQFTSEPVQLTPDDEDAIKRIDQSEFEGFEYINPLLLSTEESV

PHK = details: 1 micromolar inhibitor concentration
Method: as §3

AMPK (hum) = details: 1 micromolar inhibitor concentration
Description: The ATP concentrations were at or below the calculated Km for ATP for each particular kinase.

CLK2 = CLK2 (Homo sapiens (Human), UniProt P49760); experiment: Kinase profiling, 33P ATP filter binding assay; assay type: biochemical; details: 1 micromolar inhibitor concentration, read-out: percentage inhibition
CLK2, sequence (P49760 whole entry, species assumed): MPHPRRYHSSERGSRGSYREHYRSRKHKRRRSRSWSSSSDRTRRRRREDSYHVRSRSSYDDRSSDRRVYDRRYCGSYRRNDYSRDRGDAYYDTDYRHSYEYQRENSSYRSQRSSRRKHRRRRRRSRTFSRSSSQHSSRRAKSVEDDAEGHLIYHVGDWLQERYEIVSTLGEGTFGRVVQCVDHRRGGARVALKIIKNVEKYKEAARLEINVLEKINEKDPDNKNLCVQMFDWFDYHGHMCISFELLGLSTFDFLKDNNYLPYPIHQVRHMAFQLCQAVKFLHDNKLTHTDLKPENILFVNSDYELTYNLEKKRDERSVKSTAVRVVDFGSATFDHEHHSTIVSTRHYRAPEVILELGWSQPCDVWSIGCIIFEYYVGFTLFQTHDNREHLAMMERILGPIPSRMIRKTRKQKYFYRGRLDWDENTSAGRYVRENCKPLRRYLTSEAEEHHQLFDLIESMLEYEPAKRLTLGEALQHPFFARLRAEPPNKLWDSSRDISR

GSK3b = GSK3b (Homo sapiens (Human), UniProt P49841); experiment: Kinase profiling, 33P ATP filter binding assay; assay type: biochemical; details: 1 micromolar inhibitor concentration, read-out: percentage inhibition
GSK3b, sequence (P49841 whole entry, species assumed): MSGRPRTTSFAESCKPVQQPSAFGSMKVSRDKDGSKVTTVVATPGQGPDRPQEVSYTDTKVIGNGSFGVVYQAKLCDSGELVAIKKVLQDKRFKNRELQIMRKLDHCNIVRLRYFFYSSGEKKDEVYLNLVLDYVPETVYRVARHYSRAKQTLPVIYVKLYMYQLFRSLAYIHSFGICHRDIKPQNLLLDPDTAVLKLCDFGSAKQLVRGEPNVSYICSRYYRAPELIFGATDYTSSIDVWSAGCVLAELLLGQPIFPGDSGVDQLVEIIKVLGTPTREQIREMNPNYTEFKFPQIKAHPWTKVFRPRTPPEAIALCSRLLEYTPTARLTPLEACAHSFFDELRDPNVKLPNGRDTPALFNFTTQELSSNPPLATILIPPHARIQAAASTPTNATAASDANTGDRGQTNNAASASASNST

ROCK 2 = details: 1 micromolar inhibitor concentration
Method: as §3

[1] = system: tau/MAPT phosphorylation in control neurons; experiment: Tau/MAPT phosphorylation in control neurons, Western blotting; assay type: cell-based, human; details: treated for 10 days, compared to DMSO treated controls
Method: (§1) Overexpression of DYRK1A in DS is thought to account for increased tau phosphorylation by GSK3β and the increase in DYRK1A positive neurofibrillary tangles (NFTs) in the brains of people with DS and AD. Therefore therapeutic inhibition of DYRK1A activity in DS and AD may delay the progression of neurodegeneration in DS and AD. The following experiment on reduction of tau phosphorylation by inhibition of DYRK1A by inhibitor 4-93 was performed as described in the literature (Shi, Y. et al. A human stem cell model of early Alzheimer's disease pathology in Down syndrome. Sci. Transl. Med. 4, 124ra29 (2012)).
(§2) Neuronal cultures at day 40 were treated with DYRK1A inhibitors and control compounds for 10 days. Total protein was extracted and total tau and phosphorylated tau/MAPT was quantified by Western blotting using antibodies to total tau and a number of phospho-tau epitopes.

[2] = system: tau/MAPT phosphorylation in TS21 neurons; experiment: Tau/MAPT phosphorylation in TS21 neuronal cultures, Western blotting; assay type: cell-based, human; details: TS21 neurons
Method: as §1, §2

[3] = ten days treatment, vs DMSO treated controls or DAPT treated positive controls
[4] = treated for 10 days, normalised to β-actin, vs DMSO treated controls

SIK2, sequence (Q9H0K1 whole entry, species assumed): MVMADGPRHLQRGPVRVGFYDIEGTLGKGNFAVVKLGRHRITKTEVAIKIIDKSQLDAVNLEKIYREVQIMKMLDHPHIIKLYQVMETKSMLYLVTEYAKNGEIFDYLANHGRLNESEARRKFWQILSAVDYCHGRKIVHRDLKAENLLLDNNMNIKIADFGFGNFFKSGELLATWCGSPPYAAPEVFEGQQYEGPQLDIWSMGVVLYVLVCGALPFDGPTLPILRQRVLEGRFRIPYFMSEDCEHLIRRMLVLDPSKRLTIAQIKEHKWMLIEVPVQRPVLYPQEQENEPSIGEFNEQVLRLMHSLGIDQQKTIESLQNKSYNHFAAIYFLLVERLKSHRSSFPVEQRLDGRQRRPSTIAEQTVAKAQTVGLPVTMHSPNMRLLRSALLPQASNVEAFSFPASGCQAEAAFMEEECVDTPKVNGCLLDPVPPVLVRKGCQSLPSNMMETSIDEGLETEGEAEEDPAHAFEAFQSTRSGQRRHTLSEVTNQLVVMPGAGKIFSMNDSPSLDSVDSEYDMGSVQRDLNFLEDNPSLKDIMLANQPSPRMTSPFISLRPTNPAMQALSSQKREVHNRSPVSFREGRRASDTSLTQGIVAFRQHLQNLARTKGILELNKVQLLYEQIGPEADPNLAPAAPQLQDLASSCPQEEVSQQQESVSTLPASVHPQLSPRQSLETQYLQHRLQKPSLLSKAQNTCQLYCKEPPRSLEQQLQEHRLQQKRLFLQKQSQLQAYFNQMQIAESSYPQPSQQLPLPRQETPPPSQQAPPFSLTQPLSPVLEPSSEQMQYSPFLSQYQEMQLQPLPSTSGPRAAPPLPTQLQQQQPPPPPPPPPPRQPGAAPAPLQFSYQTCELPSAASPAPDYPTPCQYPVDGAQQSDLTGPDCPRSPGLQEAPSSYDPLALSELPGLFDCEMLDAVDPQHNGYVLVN

Compound	inhibition at 1 µM (PKCy) [%]	inhibition at 1 µM (SIK2) [%]	inhibition at 1 µM (OSR1) [%]	percentage inhibition (PINK) [%]	inhibition at 1 µM (PAK5) [%]	inhibition at 1 µM (PKCz) [%]	percentage inhibition (PHK) [%]	percentage inhibition (AMPK (hum)) [%]	inhibition at 1 µM (CLK2) [%]	inhibition at 1 µM (GSK3b) [%]	percentage inhibition (ROCK 2) [%]	tau/MAPT phosphorylation at Ser 396 [1]	tau/MAPT phosphorylation at Ser 404 [1]	phosphorylation of Ser 214 normalised to total tau levels ([2]; ten days treatment)	phosphorylated tau/MAPT at Ser 396 normalised to total tau levels [2, 3]	phosphorylated tau/MAPT at Ser 404 normalised to total tau levels [2, 3]	tau phosphorylation at Ser 396 [2, 4]	tau phosphorylation at Ser 404 [2, 4]	phosphorylation at Ser 214 ([2]; treated for 10 days, site not phosphorylated by DYRK1A)
CS(=O)(=O)Nc1cncc(-c2nc3cc(O)ccc3s2)c1 [4-99, N-(5-(5-Hydroxybenzo[d]thiazol-2-yl)pyridin-3-yl)methanesulfonamide]	0	0	0	0	0	0	0	0	44	0	0								
COc1ccc2sc(-c3cncc(NC(C)=O)c3)nc2c1 [4-93, N-(5-(5-Methoxybenzo[d]thiazol-2-yl)pyridin-3-yl)acetamide]	0	0	0		0	0						slight increase	slight increase	unaffected	significantly lower	significantly lower	significantly reduced	significantly reduced	do not affect
